Source: patent publication US9682114B2, “Plant extracts of Ptaeroxylon obliquum nand compounds having antimicrobial and antihelminthic activity” (UNIVERSITY OF PRETORIA, priority 2013, dated 2017)
In brackets after ≈: the same amount, converted by molar mass. Read-outs that look alike come from different tables or passages of the source.

Legend:
[1] = system: Candida albicans standard strain (ATCC 10231) and clinical isolates; experiment: Broth micro-dilution assay, minimal inhibitory concentration (MIC); assay type: cell-based
[2] = system: adhesion of C. albicans to human buccal epithelial cells; experiment: Adhesion assay of C. albicans to human buccal epithelial cells (HBEC); assay type: cell-based, Candida albicans / human; details: 1-h exposure
Procedure: Preparation of Yeast and Buccal Epithelial Cells
For preparation of yeast and buccal epithelial cells the methods of Taweechaisupapong et al., 2005 were used with some modification.
C. albicans standard strain (ATCC 10231) and clinical isolates were maintained on Sabouraud-dextrose agar and grown in the yeast phase in Sabouraud-dextrose broth for this study. The organisms were washed three times in normal saline (NSS) by centrifugation at 5000 rpm for 10 minutes and finally suspended in NSS to 4×10^7 cells/ml (MacFarlane standard 1).
Human buccal epithelial cells (HBEC) were collected from healthy individual subjects by gently scraping the cheek mucosa with a sterile wooden spatula. To minimize individual variations, HBEC from the twenty healthy individuals were pooled in 10 ml of sterile NSS (Sandin et al., 1987). The pooled HBEC suspension was washed three times in NSS by centrifugation at 5000 rpm for 10 minutes to eliminate debris and loosely attached micro-organisms. Washed epithelial cells were confirmed to have no attached yeast before the adherence test. The HBEC was then re-suspended in NSS to a concentration of 9×10^8 cells/ml (by haemocytometer) and used immediately for the adhesion assay. The cells were collected at the same time of day on each occasion to minimize any possible effect of diurnal variations of HBEC on yeast adherence.
Adhesion of C. albicans standard strain (ATCC 10231) and clinical isolates to HBEC was determined as follows: 0.2 ml of P. obliquum acetone leaf extract was serially two-fold diluted with normal saline (NSS) in tubes. Tubes containing 0.2 ml of amphotericin B and NSS served as positive and negative controls, respectively. 0.1 ml of HBEC and 0.1 ml of the yeast suspension prepared as described previously were added to each tube, mixed gently and incubated at 37° C. for 1 hour with gentle agitation. The suspension was then diluted in 1 ml of sterile NSS.
The cells were filtered through a 12 μm pore size polycarbonate filter (Millipore), and washed twice with 15 ml of sterile NSS to remove unattached fungi. Each filter was carefully removed with forceps and placed on a glass slide with the HBEC against the glass surface. After 30 s, the filter was gently removed; leaving the HBEC adhered to the glass slide. The slides were air-dried, fixed with methanol and stained with Gram's dye. The number of yeast cells adhering to 100 HBEC was determined by counting in a light microscopy (Nikon Trans microscope) at ×400 magnification and photographed with a Nixon digital camera DXM 1200 F.
The adhesion assay is a modification of a method previously described by Kimura and Pearsall (1978) and by Taweechaisupapong et al. (2005).
The numbers of fungi adhering per 100 human buccal epithelial cells were counted and the percentage reduction was determined as follows: crude plant extract concentration divided by the control (yeast+HBEC)×100 minus 100=% reduction.

[3] = system: Candida albicans standard strain (ATCC 10231) and clinical isolates; experiment: Re-inoculation and re-incubation of MIC wells, cidal/static effects; assay type: cell-based; details: for Growth after re-inoculation and re-incubation: 35° C. for 24 h
[4] = system: Candida albicans standard strain (ATCC 10231) and clinical isolates; experiment: Minimal fungicidal concentration (MFC) assay; assay type: cell-based; details: for Subcidal concentration: concentration slightly below the MFC; for MFC: mean value
Procedure: Minimal Fungicidal Concentration Determination
The minimal fungicidal concentration (MFC) values were determined as the lowest concentration of the extract that inhibited 100 percent growth of C. albicans standard strain (ATCC 10231) and clinical isolates.
Minimal Fungicidal Concentration Assay
The assay was initiated by pouring fresh sterile water aliquots (100 μl) into the wells of a microtitre plate. […] 50 μl of a 0.2 mg/ml aqueous solution of INT (Sigma) was added to each well. These suspensions were re-incubated at 35° C. for 24 h.

[5] = in vitro; details: LC50 (cytotoxicity)
Description: The MTT assay was used to determine the cytotoxicity of dried acetone extracts of H. caffrum (leaves); P. obliquum (leaves); R. melanophloeos (leaves) and S. birrea (stem bark) reconstituted in dimethyl sulphoxide (DMSO) against Mouse fibroblast cells (obtained from the Department of Plant Science, Faculty of Natural and Agricultural Sciences, University of Pretoria, South Africa).
MTT (yellow) is reduced into a formazan (purple) by viable cells. The colour intensity of the formazan produced, which is directly proportional to the number of viable cells, is measured using a spectrophotometer (Mosmann, 1983; Shai, 2007).
Cells were maintained in minimal essential medium (MEM) (Highveld Biological, South Africa) supplemented with 0.1% gentamicin (Virbac) and 5% foetal calf serum (Adcock-lngram). […] Dried crude plant extracts (100 mg) were reconstituted in 1 ml of DMSO and serial 10-fold dilutions of each extract were prepared in growth medium. The growth medium on sub-confluent monolayer cells grown overnight in microtitre plates was removed and cells were exposed to 200 μl of the extracts at different concentrations and incubated again at 37° C. for 5 days. Viability of cells was determined using the tetrazolium-based colorimetric assay (MTT assay) described by Mossmann (1983). Before the addition of MTT, the extract-containing medium on the cells was replaced with fresh culture medium to exclude reduction of the tetrazolium compound by plant extracts. The assay is based on mitochondrial dehydrogenase activity which is assessed by the reductive cleavage of the tetrazolium salt MTT [3-(4.5-dimethylthiazolyl)2.5-diphenyltetrazolium bromide] due to the succinic dehydrogenase present in living cells to yield a purple formazan dye. The cells were incubated with 30 μl of 5 mg/ml MTT in phosphate-buffered saline (PBS) for four hours. Thereafter, medium was removed and cells washed with PBS. DMSO (50 μl) was added to the cells and absorbance was measured using a Versamax microplate reader at 570 nm. Berberine chloride (Sigma) was used as a positive control, wells containing only cells acted as the negative control and a solvent control was also included. The percentage cell viability following the addition of varying concentrations of the extracts in relation to controls was calculated. The LC50 values were calculated (using SoftMax Pro4.8 Software) as the concentration of plant extracts resulting in 50 percent reduction of absorbance compared to untreated cells. Tests were carried out in quadruplicate and each experiment was repeated three times.

[6] = system: Sporothrix schenckii; details: cited from earlier work
[7] = system: S. aureus, Salmonella typhi, Vibrio cholera, Escherichia coli, Shigella spp.; details: cited from earlier work
[8] = system: Candida albicans; details: C. albicans; cited from earlier work
[9] = system: Microsporum canis; details: cited from earlier work
[10] = system: monkey kidney (Vero) cells; details: cited from earlier work
[11] = system: Enterococcus feacalis; details: cited from earlier work
[12] = C. albicans 1051604, Amphotericin B 0.6 mg/ml
[13] = C. albicans ATCC 10231, Amphotericin B 0.11 mg/ml
[14] = C. albicans M0824, Amphotericin B 0.6 mg/ml

C[C@@H]1[C@H](O)[C@@H](C)/C=C/C=C/C=C/C=C/C=C/C=C/C=C/[C@H](O[C@@H]2O[C@H](C)[C@@H](O)[C@H](N)[C@@H]2O)C[C@@H]2O[C@](O)(C[C@@H](O)C[C@@H](O)[C@H](O)CC[C@@H](O)C[C@@H](O)CC(=O)O[C@H]1C)C[C@H](O)[C@H]2C(=O)O [Amphotericin B, reference compound] showed an MIC ([1]; 12 h incubation, C. albicans 1051255) of 30 µg/mL (≈ 32.5 µM), an MIC ([1]; 12 h incubation, C. albicans 1051604) of 60 µg/mL (≈ 64.9 µM) and an MIC ([1]; 12 h incubation, C. albicans 1051608) of 110 µg/mL (≈ 119 µM). The MIC ([1]; 12 h incubation, C. albicans ATCC 10231) was 110 µg/mL (≈ 119 µM), the MIC ([1]; 12 h incubation, C. albicans M0824) was 30 µg/mL (≈ 32.5 µM) and the MIC ([1]; 12 h incubation, C. albicans M0825) was 30 µg/mL (≈ 32.5 µM). The MIC ([1]; 12 h incubation, C. albicans M0826) was 60 µg/mL (≈ 64.9 µM), the MIC ([1]; 24 h incubation, C. albicans 1051255) was 230 µg/mL (≈ 249 µM) and the MIC ([1]; 24 h incubation, C. albicans 1051604) was 60 µg/mL (≈ 64.9 µM). It also gave an MIC ([1]; 24 h incubation, C. albicans 1051608) of 110 µg/mL (≈ 119 µM), an MIC ([1]; 24 h incubation, C. albicans ATCC 10231) of 110 µg/mL (≈ 119 µM) and an MIC ([1]; 24 h incubation, C. albicans M0824) of 110 µg/mL (≈ 119 µM). It also gave an MIC ([1]; 24 h incubation, C. albicans M0825) of 60 µg/mL (≈ 64.9 µM), an MIC ([1]; 24 h incubation, C. albicans M0826) of 110 µg/mL (≈ 119 µM) and an MIC ([1]; C. albicans ATCC 10231, mean value) of 110 µg/mL (≈ 119 µM). For the same molecule, the MIC ([1]; C. albicans clinical isolate 1051255, mean value) was 30 µg/mL (≈ 32.5 µM), the MIC ([1]; C. albicans clinical isolate 1051604, mean value) was 60 µg/mL (≈ 64.9 µM) and the MIC ([1]; C. albicans clinical isolate 1051608, mean value) was 110 µg/mL (≈ 119 µM). It also gave an MIC ([1]; C. albicans clinical isolate M0824, mean value) of 30 µg/mL (≈ 32.5 µM), an MIC ([1]; C. albicans clinical isolate M0825, mean value) of 30 µg/mL (≈ 32.5 µM) and an MIC ([1]; C. albicans clinical isolate M0826, mean value) of 60 µg/mL (≈ 64.9 µM). For the same molecule, the “Number of yeast per 100 HBEC” value [2, 12] was 10, the “Reduction in adherence %” value [2, 12] was 95.05% and the “Number of yeast cells per 100 HBEC” value [2, 13] was 109. The “Reduction in adherence %” value [2, 13] was 38.42%, the “Number of yeast per 100 HBEC” value [2, 14] was 12 and the “Reduction in adherence %” value [2, 14] was 93.41%. The Cidal/static effects ([3]; C. albicans 1051255) was “static”, the “Growth after re-inoculation and re-incubation” value ([3]; C. albicans 1051255) was “yes” and the Cidal/static effects ([3]; C. albicans M0824) was “static”. For the same molecule, the “Growth after re-inoculation and re-incubation” value ([3]; C. albicans M0824) was “yes”, the Subcidal concentration ([4]; C. albicans 1051604) was 0.06 and the Subcidal concentration ([4]; C. albicans ATCC 10231) was 0.11. The MFC ([4]; C. albicans ATCC 10231) was 110 µg/mL (≈ 119 µM), the Subcidal concentration ([4]; C. albicans M0824) was 0.06 and the MFC ([4]; C. albicans clinical isolate 1051255) was 230 µg/mL (≈ 249 µM). It also gave an MFC ([4]; C. albicans clinical isolate 1051604) of 60 µg/mL (≈ 64.9 µM), an MFC ([4]; C. albicans clinical isolate 1051608) of 110 µg/mL (≈ 119 µM) and an MFC ([4]; C. albicans clinical isolate M0824) of 110 µg/mL (≈ 119 µM). It also gave an MFC ([4]; C. albicans clinical isolate M0825) of 60 µg/mL (≈ 64.9 µM) and an MFC ([4]; C. albicans clinical isolate M0826) of 110 µg/mL (≈ 119 µM).
Work on COc1ccc2cc3[n+](cc2c1OC)CCc1cc2c(cc1-3)OCO2 [Berberine, Berberine chloride, reference compound] yielded a CC50 at 5 days ([5]; mouse) of 9.04 µg/mL.
In the case of C=C(C)[C@@H]1CC[C@]2(C)CC[C@]3(C)[C@H](CC[C@@H]4[C@@]5(C)CC[C@H](O)C(C)(C)[C@@H]5CC[C@]43C)[C@@H]12 [Compound 1.1, Lupeol], the “MIC (Shai et al., 2008)” value [6] is listed as 12 µg/mL (≈ 28.1 µM), the CC50 at 5 days ([5]; mouse fibroblast cells, MTT, 5 days) is listed as 0.00148 µg/mL (≈ 0.00347 µM) and the “MIC (Mathabe et al., 2008)” value [7] is listed as over 200 µg/mL. The MIC ([1]; Candida albicans, C. albicans ATCC 10231, mean value, read-out: MIC) was 4 µg/mL (≈ 9.37 µM), the “MIC (Shai et al., 2008)” value [8] was 250 µg/mL (≈ 586 µM) and the “MIC (Shai et al., 2008)” value [9] was 16 µg/mL (≈ 37.5 µM). For the same molecule, the “cytotoxic LC50 (Shai et al., 2008)” value [10] was 89.5 µg/mL and the “MIC (Shai et al., 2008)” value [11] was 63 µg/mL (≈ 148 µM).
